# In US4584369A, “Anti-leukemic beta-glycosyl C-nucleosides” (Sloan-Kettering Institute for Cancer Research, priority 1984, dated 1986):
# How the values were obtained:
# P-815 = test: In vitro activity in mouse leukemic cell line P-815; assay type: cell-based; conditions: P815, P-815, in vitro, read-out: ID50 (the source's name)
# From the text: (§1) CNUCLEOSIDES IN MOUSE AND HUMAN LEUKYMIC CELL LINES
# (§2) It is noted that the first compound in Table 1 is the compound reported in Lim et al (supra).
# ALL-CCRF-CEM = test: In vitro activity in human leukemic cell line ALL-CCRF-CEM; assay type: cell-based; conditions: read-out: ID50 (the source's name)
# From the text: as §1, §2
# RAJI = test: In vitro activity in human leukemic cell line RAJI; assay type: cell-based; conditions: read-out: ID50 (the source's name)
# From the text: as §1, §2
# HL-60 = test: In vitro activity in human leukemic cell line HL-60; assay type: cell-based; conditions: HL-60, in vitro, read-out: ID50 (the source's name)
# From the text: as §1, §2
# L-1210 = test: In vitro activity in mouse leukemic cell line L-1210; assay type: cell-based; conditions: L1210, L-1210, in vitro, read-out: ID50 (the source's name)
# From the text: as §1, §2
# P-815/ARA C = test: In vivo activity of C-nucleosides in mice, P-815/ARA C line
# From the text: (§3) IN VIVO ACTIVITY OF CNUCLEOSIDES IN MICE
# as §2
# L-1210/MP = test: In vivo activity of C-nucleosides in mice, L-1210/MP line; conditions: Q4D × 3,D1 @ 0.4 MG/KG
# From the text: as §3, §2
# L-1210/0 = test: In vivo activity of C-nucleosides in mice, L-1210/0 line
# From the text: as §3, §2
# P-815/0 = test: In vivo activity of C-nucleosides in mice, P-815/0 line
# From the text: as §3, §2
# leukemic cells = test: Anti-leukemic / antitumor activity using usual techniques of the art (summary statements); assay type: cell-based, mouse and human; conditions: in words
# From the text: as §2
SMILES,IC50 (P-815) [µg/mL],IC50 (ALL-CCRF-CEM) [µg/mL],IC50 (RAJI) [µg/mL],IC50 (HL-60) [µg/mL],IC50 (L-1210) [µg/mL],"% ILS (P-815/ARA C; Q4D × 3,D1 @ 0.4 MG/KG) [%]","% ILS (P-815/ARA C; Q4D × 3,D1 @ 0.7 MG/KG) [%]",% ILS (L-1210/MP) [%],"% ILS (L-1210/0; Q4D × 3,D1 @ 0.25 MG/KG) [%]","% ILS (L-1210/0; QD × 5,D1 @ 0.5 MG/KG) [%]","% ILS (P-815/0; Q4D × 4,D1 @ 40 MG/KG) [%]",% ILS (P-815/0; QD × 2/Q2D × 3 @ 60 MG/KG) [%],"antitumor / anti-leukemic activity (leukemic cells; listed as X--NH, R1 =OH)",antitumor / anti-leukemic activity (leukemic cells; listed as first compound in Table 1)
"OC[C@H]1O[C@@H](c2c[nH]c3c(=S)[nH]cnc23)[C@H](O)[C@@H]1O [X = NH, R1 = SH, R2 = H]",5.6,,,,,,,,,,,,,
"Nc1ncnc2c([C@@H]3O[C@H](CO)[C@@H](O)[C@H]3O)csc12 [X = S, R1 = NH2, R2 = H, 7-(β-D-ribofuranosyl)-4-amino-thieno[3,2-d]pyrimidine]",0.0003,0.0005,0.002,0.0005,0.0006,,,,,,,,,
"Nc1nc[nH]c2c([C@@H]3O[C@H](CO)[C@@H](O)[C@H]3O)cnc1-2 [X = NH, R1 = NH2, R2 = H, 7-(β-D-Ribofuranosyl)-4-amino-pyrrolo[3,2-d]pyrimidine]",0.001,0.0008,0.002,0.0003,0.0008,19.8,30.8,71.8,17.0,9.1,,,,
"CSc1ncnc2c([C@@H]3O[C@H](CO)[C@@H](O)[C@H]3O)c[nH]c12 [X = NH, R1 = SMe, R2 = H]",0.3,,,,,,,,,,,,,
"O=c1[nH]cnc2c([C@@H]3O[C@H](CO)[C@@H](O)[C@H]3O)c[nH]c12 [X = NH, R1 -- OH, R2 = H, reference compound]",> 10,> 100,> 100,> 100,> 100,,,,,,,,essentially no antitumor activity,lack of activity

# Second part, led by results:
IC50 (P-815) [µg/mL],IC50 (ALL-CCRF-CEM) [µg/mL],IC50 (RAJI) [µg/mL],IC50 (HL-60) [µg/mL],IC50 (L-1210) [µg/mL],SMILES,"% ILS (P-815/ARA C; Q4D × 3,D1 @ 0.4 MG/KG) [%]","% ILS (P-815/ARA C; Q4D × 3,D1 @ 0.7 MG/KG) [%]",% ILS (L-1210/MP) [%],"% ILS (L-1210/0; Q4D × 3,D1 @ 0.25 MG/KG) [%]","% ILS (L-1210/0; QD × 5,D1 @ 0.5 MG/KG) [%]","% ILS (P-815/0; Q4D × 4,D1 @ 40 MG/KG) [%]",% ILS (P-815/0; QD × 2/Q2D × 3 @ 60 MG/KG) [%],"antitumor / anti-leukemic activity (leukemic cells; listed as X--NH, R1 =OH)",antitumor / anti-leukemic activity (leukemic cells; listed as first compound in Table 1)
2.5,0.9,4.2,0.4,3.3,"O=c1[nH]cnc2c([C@@H]3O[C@H](CO)[C@@H](O)[C@H]3O)csc12 [X = S, R1 = OH, R2 = H, 7-(β-D-Ribofuranosyl)-3H-4-oxo-thieno[3,2-d]pyrimidine]",,,,,,,,,
0.03,0.006,0.03,0.008,0.07,"CSc1ncnc2c([C@@H]3O[C@H](CO)[C@@H](O)[C@H]3O)csc12 [X = S, R1 = SMe, R2 = H, 7-(β-D-Ribofuranosyl)-4-methylthio-thieno[3,2-d]pyrimidine]",,,,,,56.3,71.4,,
0.5,1.6,0.9,0.4,0.6,"OC[C@H]1O[C@@H](c2csc3c(=S)[nH]cnc23)[C@H](O)[C@@H]1O [X = S, R1 = SH, R2 = H, 7-(β-D-ribofuranosyl)-3H-4-thiono-thieno[3,2-d]pyrimidine]",,,,,,,,,
